Laboratory results as given in US6800762B2, “Indolin derivaties as sun protection agents” (Ciba Specialty Chemicals Corporation, priority 1998, dated 2004).

Tests used:
[1] = UV absorption: molar extinction coefficient at λmax; type: physicochemical
Excerpt: ε=62081 in ethanol l/(mol/cm) at λmax=434 nm, elemental analysis for C24H32N2O2[%]:

[2] = photostability; type: physicochemical; settings: read-out: photostability t1/2 (converted)

CN1/C(=C/C(=O)c2ccccc2)C(C)(C)c2ccccc21 [Example 3]
λmax ([1]; in dioxane): 377 nm | ε ([1]; in dioxane at λmax): 29427 l/(mol/cm)

CN1/C(=C\C=O)C(C)(C)c2ccccc21 [Example 1, 2-(1,3,3-trimethyl-indolin-2-ylene) acetaldehyde]
ε ([1]; in ethanol at λmax): 34520 l/(mol/cm) | half-life [2]: 208 h

CCCCC(CC)COC(=O)/C(C#N)=C/C=C1\N(C)c2ccccc2C1(C)C (stereo not drawn) [Example 2]
λmax ([1]; in ethanol): 434 nm | ε ([1]; in ethanol at λmax): 62081 l/(mol/cm)
